The values below come from patent publication US20250197407A1 (Jazz Pharmaceuticals Ireland Limited, priority 2022, published 2025).

For the assay, the target named is SOS1/KRAS WT (Homo sapiens (Human), UniProt Q07889). In words: SOS1/KRAS WT HTRF binding assay (FRET-based protein-protein interaction). Conditions: inhibition of His6-SOS1 (aa564-1049, 40 nM) binding to GST-KRAS-WT (aa1-188, 40 nM); at least two independent replicates; read-out: SOS1/KRAS WT HTRF Binding assay pIC50 (converted). The source says: The capacity of compounds to inhibit SOS1 binding to KRAS-WT (wild-type) was quantified using a FRET-based protein-protein interaction assay. The assay is based on the transfer of energy between two fluorophores, a donor and an acceptor, when in close proximity. In this instance, the donor is a Europium-conjugated α-GST antibody that binds to GST-tagged KRAS-WT, and the acceptor is an XL665-conjugated α-His 6 antibody that binds to His 6-tagged SOS1. Binding of SOS1 to KRAS-WT results in an increased fluorescent signal at emission wavelength of 665 nm which can be detected on the EnVision plate reader. Compounds that inhibit binding will reduce the 665 nm signal emitted. Recombinant KRAS-WT protein (40 nM; Human KRAS, aa1-188 recombinant protein with N-terminal GST-tag) and SOS1 protein (40 nM; Human SOS1 exchange domain, aa564-1049 with N-terminal 6His-tag) were mixed together in assay buffer (5 mM HEPES pH7.3, 150 mM NaCl, 10 mM EDTA, 5 mM MgCl2, 0.05% BSA, 0.0025% NP-40, 1 mM DTT and 100 mM KF) and incubated at room temperature with a dose response of compound in a 384-well low volume white plate and a final volume of 5 ul. After a 60 minute incubation, 5 ul of 4 nM anti-GST-Eu(K) (Cisbio, France) combined with 20 nM anti-6His-XL665 (Cisbio, France), diluted in assay buffer, was added to the plate. Following a further 4 hr incubation at room temperature, time-resolved fluorescence was measured on the EnVision plate reader. DMSO (0.05%) and 10 μM reference compound were used to generate the Max and Min assay signals, respectively. Data was analysed using a four-parameter logistic model to calculate IC50 values, with at least two independent replicates performed for each compound.
Chain of SOS1/KRAS WT (Q07889 564-1049): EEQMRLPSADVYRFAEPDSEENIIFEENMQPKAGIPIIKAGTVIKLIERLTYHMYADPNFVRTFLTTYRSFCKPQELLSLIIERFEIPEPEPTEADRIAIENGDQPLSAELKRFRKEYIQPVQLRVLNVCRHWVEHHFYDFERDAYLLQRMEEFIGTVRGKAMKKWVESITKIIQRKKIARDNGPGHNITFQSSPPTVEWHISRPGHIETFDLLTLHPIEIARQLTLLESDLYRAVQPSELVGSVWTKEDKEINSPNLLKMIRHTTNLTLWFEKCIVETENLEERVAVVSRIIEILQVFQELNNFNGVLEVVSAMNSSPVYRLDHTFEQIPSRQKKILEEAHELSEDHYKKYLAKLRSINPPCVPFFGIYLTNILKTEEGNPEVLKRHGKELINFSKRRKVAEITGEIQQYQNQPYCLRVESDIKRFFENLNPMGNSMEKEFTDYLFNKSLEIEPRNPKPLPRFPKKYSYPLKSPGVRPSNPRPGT
Data was analyzed using a four-parameter logistic model to calculate IC50 values, with at least two independent replicates performed for each compound.
In general terms: TR-FRET usually uses a lanthanide donor and a delayed reading to cut background.
Consider `COC1(C)C(=O)N(C)c2cc3c(C)nnc(N[C@H](C)c4cccc(C(F)(F)CO)c4)c3cc21` (stereo partly drawn) [Compound 178, 3-methoxy-1,3,8-trimethyl-5-[[(1R)-1-[3-(1,1-difluoro-2-hydroxy-ethyl)phenyl]ethyl]amino]pyrrolo [3,2-g]phthalazin-2-one], for which the IC50 is 16.6 nM. Turning to `Cc1nnc(N[C@H](C)c2cccc(C(F)(F)F)c2F)c2cc3c(cc12)n(C)c(=O)n3C` [Compound 40, 1,3,8-trimethyl-5-[[(1R)-1-[2-fluoro-3-(trifluoromethyl)phenyl]ethyl]amino]imidazo[4,5-g]phthalazin-2-one], the IC50 was 8.91 nM.

For the compound `Cc1nnc(N[C@H](C)c2cccc(C(F)(F)F)c2F)c2cc3c(cc12)n(C)c(=O)n3C(C)C` [Compound 38, 3-isopropyl-1,8-dimethyl-5-[[(1R)-1-[2-fluoro-3-(trifluoromethyl)phenyl]ethyl]amino] imidazo[4,5-g]phthalazin-2-one], the IC50 was 7.59 nM. In the case of `CCOC1(C)C(=O)N(C2CC2)c2cc3c(N[C@H](C)c4cccc(C(F)(F)CO)c4)nnc(C)c3cc21` (stereo partly drawn) [Compound 162, 1-cyclopropyl-8-[[(1R)-1-[3-(1,1-difluoro-2-hydroxy-ethyl)phenyl]ethyl]amino]-3-ethoxy-3,5-dimethyl-pyrrolo[3,2-g]phthalazin-2-one] it was 9.12 nM; in that of `COCCn1c(=O)n(C)c2cc3c(C)nnc(N[C@H](C)c4cccc(C(F)(F)F)c4)c3cc21` [Compound 8, 3-(2-methoxyethyl)-1,8-dimethyl-5-[[(1R)-1-[3-(trifluoromethyl)phenyl]ethyl]amino]imidazo[4,5-g]phthalazin-2-one], 12.6 nM.

In the case of `COCC1(C)C(=O)N(C2CC2)c2cc3c(N[C@H](C)c4cccc(C(F)(F)CO)c4F)nnc(C)c3cc21` (stereo partly drawn) [Compound 138, 1-cyclopropyl-8-[[(1R)-1-[3-(1,1-difluoro-2-hydroxy-ethyl)-2-fluoro-phenyl]ethyl]amino]-3-(methoxymethyl)-3,5-dimethyl-pyrrolo[3,2-g]phthalazin-2-one], the IC50 is 6.61 nM. Turning to `COC1(C)C(=O)N(C)c2cc3c(N[C@H](C)c4cccc(C(F)(F)C(C)(C)O)c4C)nnc(C)c3cc21` (stereo partly drawn) [Compound 102, 3-methoxy-1,3,5-trimethyl-8-[[(1R)-1-[3-(1,1-difluoro-2-hydroxy-2-methyl-propyl)-2-methyl-phenyl]ethyl]amino]pyrrolo[2,3-g]phthalazin-2-one], the IC50 is 8.32 nM.

As for `CCC1(OC)C(=O)N(C)c2cc3c(N[C@H](C)c4cccc(C(F)(F)C(C)(C)O)c4)nnc(C)c3cc21` (stereo partly drawn) [Compound 202, 3-ethyl-3-methoxy-1,5-dimethyl-8-[[(1R)-1-[3-(1,1-difluoro-2-hydroxy-2-methyl-propyl)phenyl]ethyl]amino]pyrrolo [2,3-g]phthalazin-2-one], the IC50 was 10.7 nM.

Turning to `Cc1c([C@@H](C)Nc2nnc(C)c3cc4c(cc23)N(C)C(=O)C4(C)C)cccc1C(F)(F)CO` [Compound 69, 1,3,3,5-tetramethyl-8-[[(1R)-1-[3-(1,1-difluoro-2-hydroxy-ethyl)-2-methyl-phenyl]ethyl]amino]pyrrolo[2,3-g]phthalazin-2-one], the IC50 is 9.12 nM. In the case of `Cc1nnc(N[C@H](C)c2cccc(C(F)(F)F)c2)c2cc3c(cc12)n(C)c(=O)n3C1CCC1` [Compound 22, 3-cyclobutyl-1,8-dimethyl-5-[[(1R)-1-[3-(trifluoromethyl)phenyl]ethyl]amino] imidazo[4,5-g]phthalazin-2-one] it was 11.5 nM; in that of `Cc1nnc(N[C@H](C)c2cccc(C(F)(F)CN)c2F)c2cc3c(cc12)C(C)(C)C(=O)N3C` [Compound 118, 1,3,3,5-tetramethyl-8-[[(1R)-1-[3-(2-amino-1,1-difluoro-ethyl)-2-fluoro-phenyl]ethyl]amino]pyrrolo[2,3-g]phthalazin-2-one], 11.5 nM; in that of `Cc1nnc(N[C@H](C)c2cccc(C(F)(F)C(C)(C)O)c2)c2cc3c(cc12)C1(CCOCC1)C(=O)N3C` [Compound 84, 1,5-dimethyl-8-[[(1R)-1-[3-(1,1-difluoro-2-hydroxy-2-methyl-propyl)phenyl]ethyl]amino]spiro [pyrrolo[2,3-g]phthalazine-3,4′-tetrahydropyran]-2-one], 8.91 nM.

Regarding `CCN1C(=O)C(C)(OC)c2cc3c(C)nnc(N[C@H](C)c4cccc(C(F)(F)CO)c4C)c3cc21` (stereo partly drawn) [Compound 168, 1-ethyl-3-methoxy-3,5-dimethyl-8-[[(1R)-1-[3-(1,1-difluoro-2-hydroxy-ethyl)-2-methyl-phenyl]ethyl]amino]pyrrolo[2,3-g]phthalazin-2-one], the IC50 was 8.91 nM. In the case of `Cc1c(-c2ccn(C)n2)cccc1[C@@H](C)Nc1nnc(C)c2cc3c(cc12)n(C)c(=O)n3C` [Compound 151, 1,3,8-trimethyl-5-[[(1R)-1-[2-methyl-3-(1-methylpyrazol-3-yl)phenyl]ethyl]amino]imidazo[4,5-g]phthalazin-2-one] it was 11 nM. For the compound `Cc1nnc(N[C@H](C)c2cccc(C(F)(F)CO)c2)c2cc3c(cc12)n(C)c(=O)n3C1CC1` [Compound 70, 3-cyclopropyl-1,8-dimethyl-5-[[(1R)-1-[3-(1,1-difluoro-2-hydroxy-ethyl)phenyl]ethyl]amino]imidazo [4,5-g]phthalazin-2-one], the IC50 was 11.5 nM. Under `Cc1nnc(N[C@H](C)c2ccc3cn[nH]c3c2)c2cc3c(cc12)n(C)c(=O)n3C` [Compound 57, 5-[[(1R)-1-(1H-indazol-6-yl)ethyl]amino]-1,3,8-trimethyl-imidazo[4,5-g]phthalazin-2-one] stands 93.3 nM; under `Cc1nnc(N[C@H](C)c2cccc(C(F)(F)C(C)(C)O)c2F)c2cc3c(cc12)n(C)c(=O)n3C` [Compound 16, 1,3,8-trimethyl-5-[[(1R)-1-[3-(1,1-difluoro-2-hydroxy-2-methyl-propyl)-2-fluoro-phenyl]ethyl]amino]imidazo[4,5-g]phthalazin-2-one], 11.2 nM; under `Cc1c([C@@H](C)Nc2nnc(C)c3cc4c(cc23)C(C)(C)C(=O)N4C)cccc1C(F)(F)CO` [Compound 97, 1,3,3,8-tetramethyl-5-[[(1R)-1-[3-(1,1-difluoro-2-hydroxy-ethyl)-2-methyl-phenyl]ethyl]amino]pyrrolo[3,2-g]phthalazin-2-one], 13.2 nM. In the case of `COCC1(C)C(=O)N(C)c2cc3c(N[C@H](C)c4cccc(C(F)(F)C(C)(C)O)c4C)nnc(C)c3cc21` (stereo partly drawn) [Compound 113, 8-[[(1R)-1-[3-(1,1-difluoro-2-hydroxy-2-methyl-propyl)-2-methyl-phenyl]ethyl]amino]-3-(methoxymethyl)-1,3,5-trimethyl-pyrrolo[3,2-g]phthalazin-2-one] it was 13.5 nM; in that of `Cc1nnc(N[C@H](C)c2cc(F)cc(C(F)(F)CO)c2)c2cc3c(cc12)C1(CCCC1)C(=O)N3C` [Compound 187, 1′,5′-dimethyl-8′-[[(1R)-1-[3-(1,1-difluoro-2-hydroxy-ethyl)-5-fluoro-phenyl]ethyl]amino]spiro [cyclopentane-1,3′-pyrrolo[2,3-g]phthalazine]-2′-one], 21.9 nM; in that of `Cc1c([C@@H](C)Nc2nnc(C)c3cc4c(cc23)n(C2CC2)c(=O)n4C)cccc1C(F)(F)C(C)(C)O` [Compound 210, 3-cyclopropyl-5-[[(1R)-1-[3-(1,1-difluoro-2-hydroxy-2-methyl-propyl)-2-methyl-phenyl]ethyl]amino]-1,8-dimethyl-imidazo[4,5-g]phthalazin-2-one], 13.2 nM. Take `Cc1nnc(N[C@H](C)c2cccc(C(F)(F)CO)c2F)c2cc3c(cc12)n(C)c(=O)n3C(C)C` [Compound 15, 3-isopropyl-1,8-dimethyl-5-[[(1R)-1-[3-(1,1-difluoro-2-hydroxy-ethyl)-2-fluoro-phenyl]ethyl]amino]imidazo[4,5-g]phthalazin-2-one]: the IC50 is 8.32 nM.

On to `Cc1c([C@@H](C)Nc2nnc(C)c3cc4c(cc23)N(C)C(=O)C42CCOCC2)cccc1C(F)(F)CO` [Compound 72, 1,5-dimethyl-8-[[(1R)-1-[3-(1,1-difluoro-2-hydroxy-ethyl)-2-methyl-phenyl]ethyl]amino]spiro[pyrrolo [2,3-g]phthalazine-3,4′-tetrahydropyran]-2-one], for which the IC50 is 9.77 nM. Under `Cc1c(C#N)cccc1[C@@H](C)Nc1nnc(C)c2cc3c(cc12)N(C)C(=O)C3(C)C` [Compound 48, 2-methyl-3-[(1R)-1-[(1,3,3,5-tetramethyl-2-oxo-pyrrolo[3,2-g]phthalazin-8-yl)amino]ethyl]benzonitrile] stands 13.5 nM; under `Cc1nnc(N[C@H](C)c2cccc(C(F)F)c2)c2cc3c(cc12)n(C)c(=O)n3C(C)(C)C` [Compound 205, 3-tert-butyl-5-[[(1R)-1-[3-(difluoromethyl)phenyl]ethyl]amino]-1,8-dimethyl-imidazo[4,5-g]phthalazin-2-one], 11.7 nM.
